Source: patent publication US9422247B2, “Fe(III) complex compounds for the treatment and prophylaxis of iron deficiency symptoms and iron deficiency anemias” (Vifor (International) AG, priority 2011, dated 2016)

Tested on: Male NMRI (SPF) mice
Assay: iron utilization in mouse model (low-iron diet)
Format: in vivo
Details: iron-deficient male NMRI mice; stomach tube, 2 mg iron/kg body weight/day, days 1-5 and 8-12; utilization on day 15 calculated from hemoglobin and body weight increase
Experimental: The excellent Fe utilizations that can be accomplished through the Fe complexes according to the invention were measured by means of the following mouse model. Male NMRI (SPF) mice (approximately 3 weeks old) were fed a low-iron diet (approx. 5 ppm iron) for approximately 3 weeks. The iron complexes were then administered to them by means of a stomach tube (2 mg iron/kg body weight/day) for 2 times 5 days, with an interruption of 2 days (days 1-5 and 8-12). Utilization on day 15 was calculated from the hemoglobin increase and the body weight increase in accordance with the formula […] Control group, utilized from food, (mg Fe)

Substance	Utilization n 15 d (abs. %)
Tris-(4,5,6-trimethylpyrimidine-2-ol-1-oxide)-iron(III) complex [Example 6]	70
Tris-(4,6-diethylpyrimidine-2-ol-1-oxide)-iron(III) complex [Example 4]	76
Tris-(4,6-dimethylpyrimidine-2-ol-1-oxide)-iron(III) complex [Example 3]	74
Tris-(4-ethylpyrimidine-2-ol-1-oxide)-iron(III) complex [Example 8]	82
Tris-(4-methyl-5,6,7,8-tetrahydrochinazoline-2-ol-3-oxide)-iron(III) complex [Example 11]	74
Tris-(4-methyl-6,7-dihydro-5H-cyclopenta[d]pyrimidin-2-ol-1-oxide)-iron(III) complex [Example 10]	70
Tris-(4-methylpyrimidine-2-ol-oxide)-iron(III) complex [Example 2]	80
Tris-(4-propane-2-yl)pyrimidine-2-ol-1-oxide)-iron(III) complex [Example 12]	55
Tris-(5,6-dimethylpyrimidine-2-ol 1-oxide)-iron(III) complex [Example 16]	57
Tris-(5-chloro-4,6-dimethylpyrimidine-2-ol-1-oxide)-iron(III) complex [Example 7]	64
Tris-(6-ethyl-4-methylpyrimidin-2-ol-1-oxide)-iron(III) complex [Example 9]	69
Tris-(pyrimidine-2-ol-1-oxide)-iron(III) complex [Example 1]	89
